In patent publication US20260207765A1, “COVALENTLY-MODIFIED STEROID ACID-PEPTIDES HAVING ENHANCED STABILITY AND/OR BIOLOGICAL ACTIVITY” (priority 2022, published 2026):
Positions of bridges follow the written chain, without caps; N, C: chain ends. Residues, ends and D or L forms follow the SMILES beside them. Chains are numbered I, II in the order given. No end group written: not given here. *: point of attachment. Chenodeoxycholyl = C[C@H](CCC(=O)*)[C@H]1CC[C@H]2[C@@H]3[C@H](O)C[C@@H]4C[C@H](O)CC[C@]4(C)[C@H]3CC[C@]12C; Cholyl = C[C@H](CCC(=O)*)[C@H]1CC[C@H]2[C@@H]3[C@H](O)C[C@@H]4C[C@H](O)CC[C@]4(C)[C@H]3C[C@H](O)[C@]12C

Legend:
[1] = system: JIMT-1 breast cancer cells; test: Cytotoxicity of steroid acid-peptide conjugates in JIMT-1 cells; assay type: cell-based; conditions: JIMT-1, FIGS. 21A and 21B
Protocol: (§1) Apoptosis analysis was conducted by flow-cytometry. Briefly, target cells were first treated then washed. Treated cells were then re-suspended in Annexin-V staining buffer prior to staining with Annexin-V and propidium iodine (PI). Fifteen minutes later, cells were washed prior to analysis using BD FACS™ Diva on CANTOII™.
50 mg of CDCA-C-SV40 monomers (or other steroid acid-peptide monomers) were resuspended in 200-500 μL of DMSO. 10 eq of N,N-Diisopropylethylamine (DIPEA) was added to the mixture and incubated in a thermomixer at 37° C. with agitation (1000 rpm) overnight, enabling dimerization of the monomers via their N-terminal cysteine thiol groups to produce (CDCA-C-SV40)2 or other dimers. The samples were then analyzed by UPLC-MS to evaluate dimer formation efficiency. Cell toxicity was evaluated via a Cell Toxicity assay (PrestoBlue™).

EL4 lymphoma = test: EL4 tumor model in mice; assay type: in vivo, mouse; conditions: highest tested dose (190 μM), every 48 h, total of 5 injections
Protocol: Female C57BL/6 mice (n=10/group) received a SC injection of 5×10^5 EL4 cells at Day 0. […] For all depletion studies, antibodies were injected via the intraperitoneal route at days 0, 3 and 6 at a concentration of 200 μg/injection. Tumor size and animal survival for all of the above listed in vivo studies was followed thereafter using a digital caliber until reaching endpoints (ulceration or a tumor volume ≥1000 mm^3).

macrophages = test: Apoptosis analysis by flow cytometry on macrophages; assay type: cell-based; conditions: 190 μM
Protocol: as §1

[2] = system: mesenchymal stromal cells (MSCs); test: Apoptosis analysis by flow cytometry on MSCs; assay type: cell-based; conditions: 190 μM
Protocol: as §1

EL4 lymphoma cells = test: Apoptosis analysis / kill curve by flow cytometry (Annexin-V, PI); assay type: cell-based, mouse
Protocol: as §1

[3] = system: bone marrow-derived dendritic cells (DCs); test: Apoptosis analysis by flow cytometry on bone marrow-derived dendritic cells; assay type: cell-based, mouse; conditions: 190 μM
Protocol: Mouse bone marrow derived DCs (BMDCs) were generated by flushing the whole marrow from mouse femurs using RPMI™ 1640 supplemented with 10% fetal bovine serum (FBS), 50 U/mL Penicillin-Streptomycin, 2 mM L-glutamine, 10 mM HEPES, 1% MEM Non-essential Amino Acids, 1 mM Sodium Pyruvate, 0.5 mM β-mercaptoethanol. Following red blood cell lysis, cells were then cultured in media supplemented with 50 ng/mL murine recombinant GM-CSF. The media was changed on days 2, 4, 6 and 8. On day 9, the media was replaced to include recombinant murine GM-CSF and LPS from Escherichia coli 0111 (1 ng/mL) to stimulate DC maturation. Mature DCs were assessed by flow cytometry for their surface expression of CD3, CD19, NK1.1, CD11c, CD80, CD86, and I-A^b.
as §1

[4] = system: EL4, B16, E0771, CT-26, 4T1, MBA-MD-468, H460 and A549 cancer cells; test: Annexin-V cytotoxicity screen of bile acid-SV40 conjugates on eight tumor cell lines; assay type: cell-based; conditions: 190 μM, all eight tumor cell lines
Protocol: Annexin-V staining percentage after treatment with different bile acid-SV40 conjugates (190 μM) is shown relative to live cancer cells (i.e., PBS treated cancer cells) by flow cytometry. Cancer cell lines tested were EL4 lymphoma, B16 melanoma, E0771 breast cancer, CT-26 colon carcinoma, 4T1 breast cancer, MBA-MD-468 triple-negative breast cancer, human H460 lung cancer, and human A549 lung cancer. […] SV40 alone was also tested as a negative control.
as §1

[5] = system: wild-type MSC and B3Z reporter system; test: Antigen cross-presentation, wild-type MSC and B3Z reporter system; conditions: 50 μM, sample stored 3 months at −80° C. (thawed)

## CC(C)[C@H](NC(=O)[C@H](CCCCN)NC(=O)CNC(=O)[C@H](Cc1ccc(O)cc1)NC(=O)CNC(=O)[C@H](CO)NC(=O)[C@H](CSSC[C@H](NC(=O)CC[C@@H](C)[C@H]1CC[C@H]2[C@@H]3[C@H](O)C[C@@H]4C[C@H](O)CC[C@]4(C)[C@H]3CC[C@]12C)C(=O)N[C@@H](CO)C(=O)NCC(=O)N[C@@H](Cc1ccc(O)cc1)C(=O)NCC(=O)N[C@@H](CCCCN)C(=O)N[C@H](C(=O)N[C@@H](CO)C(=O)N[C@@H](CCCNC(=N)N)C(=O)N[C@@H](CCCNC(=N)N)C(=O)NCC(=O)NCC(=O)N[C@@H](Cc1c[nH]cn1)C(=O)N[C@@H](CCC(N)=O)C(=O)N[C@@H](CC(N)=O)C(=O)N[C@@H](CO)C(=O)N[C@@H](Cc1ccc(O)cc1)C(=O)N[C@@H](CCCCN)C(=O)N1CCC[C@H]1C(=O)N[C@@H](Cc1ccc(O)cc1)C(=O)O)C(C)C)NC(=O)CC[C@@H](C)[C@H]1CC[C@H]2[C@@H]3[C@H](O)C[C@@H]4C[C@H](O)CC[C@]4(C)[C@H]3CC[C@]12C)C(=O)N[C@@H](CO)C(=O)N[C@@H](CCCNC(=N)N)C(=O)N[C@@H](CCCNC(=N)N)C(=O)NCC(=O)NCC(=O)N[C@@H](Cc1c[nH]cn1)C(=O)N[C@@H](CCC(N)=O)C(=O)N[C@@H](CC(N)=O)C(=O)N[C@@H](CO)C(=O)N[C@@H](Cc1ccc(O)cc1)C(=O)N[C@@H](CCCCN)C(=O)N1CCC[C@H]1C(=O)N[C@@H](Cc1ccc(O)cc1)C(=O)O [(CDCA-C-hnRNP D NLS)2] (I: Chenodeoxycholyl-CSGYGKVSRRGGHQNSYKPY-OH / II: Chenodeoxycholyl-CSGYGKVSRRGGHQNSYKPY-OH; disulfide I:1-II:1)
[1]
  cytotoxicity of dimerized version versus monomer: enhancement of cytotoxicity

## CSCC[C@H](NC(=O)[C@H](CS)NC(=O)CC[C@@H](C)[C@H]1CC[C@H]2[C@@H]3[C@H](O)C[C@@H]4C[C@H](O)CC[C@]4(C)[C@H]3C[C@H](O)[C@]12C)C(=O)NCC(=O)N[C@@H](CCCNC(=N)N)C(=O)N[C@H](C(=O)N[C@@H](CCCNC(=N)N)C(=O)N[C@H](C(=O)N[C@@H](CCCCN)C(=O)N[C@H](C(=O)N[C@H](C(=O)N[C@@H](CCCCN)C(=O)N[C@@H](CCCCN)C(=O)N[C@@H](C)C(=O)N[C@@H](C)C(=O)NCC(=O)NCC(=O)O)C(C)C)[C@@H](C)O)[C@@H](C)O)C(C)C [CA-C-NLS1 RPS17] (Cholyl-CMGRVRTKTVKKAAGG-OH; N-terminus and C-terminus assumed)
EL4 lymphoma
  survival at day 40: 20%
  tumor growth: significantly delayed tumor growth

## CC[C@H](C)[C@H](NC(=O)[C@H](CCCNC(=N)N)NC(=O)[C@H](CCCCN)NC(=O)[C@H](CCSC)NC(=O)[C@H](CC(C)C)NC(=O)[C@H](Cc1c[nH]cn1)NC(=O)[C@@H](NC(=O)[C@@H](NC(=O)[C@H](Cc1ccc(O)cc1)NC(=O)CNC(=O)[C@H](C)NC(=O)[C@@H](NC(=O)[C@H](CCCCN)NC(=O)[C@H](CC(N)=O)NC(=O)[C@H](CCCNC(=N)N)NC(=O)[C@H](CC(C)C)NC(=O)[C@H](CCCCN)NC(=O)[C@H](CCCCN)NC(=O)[C@H](CO)NC(=O)[C@H](CS)NC(=O)CC[C@@H](C)[C@H]1CC[C@H]2[C@@H]3[C@H](O)C[C@@H]4C[C@H](O)CC[C@]4(C)[C@H]3C[C@H](O)[C@]12C)[C@@H](C)CC)C(C)C)[C@@H](C)O)C(=O)O [CA-C-NLS3 RPS17] (Cholyl-CSKKLRNKIAGYVTHLMKRI-OH; N-terminus and C-terminus assumed)
EL4 lymphoma
  survival at day 40: 20%
  tumor growth: significantly delayed tumor growth

## CC(C)[C@H](NC(=O)[C@H](CCCCN)NC(=O)[C@H](CCCNC(=N)N)NC(=O)[C@H](CCCCN)NC(=O)[C@H](CCCCN)NC(=O)[C@H](CCCCN)NC(=O)[C@@H]1CCCN1C(=O)CNC(=O)[C@H](Cc1ccc(O)cc1)NC(=O)CNC(=O)[C@H](CS)NC(=O)CC[C@@H](C)[C@H]1CC[C@H]2[C@@H]3[C@H](O)C[C@@H]4C[C@H](O)CC[C@]4(C)[C@H]3C[C@H](O)[C@]12C)C(=O)NCC(=O)NCC(=O)O [CA-C-SV40] (Cholyl-CGYGPKKKRKVGG-OH)
EL4 lymphoma
  survival at day 40: 60%
macrophages
  apoptosis in normal or healthy cells: induce apoptosis
[2]
  apoptosis in normal or healthy cells: induce apoptosis
EL4 lymphoma cells; 190 μM, EL4, FIG. 6
  cytotoxicity of Cholic acid-NLS conjugates: notably higher
EL4 lymphoma cells; EL4 lymphoma cells, flow cytometry, read-out: EC50 (cell death / kill curve)
  EC50: 95.9 µM
[3]
  apoptosis in normal or healthy cells: induce apoptosis

## CC(C)[C@H](NC(=O)[C@H](CCCCN)NC(=O)[C@H](CCCNC(=N)N)NC(=O)[C@H](CCCCN)NC(=O)[C@H](CCCCN)NC(=O)[C@H](CCCCN)NC(=O)[C@@H]1CCCN1C(=O)CNC(=O)[C@H](Cc1ccc(O)cc1)NC(=O)CNC(=O)[C@H](CS)NC(=O)CC[C@@H](C)[C@H]1CC[C@H]2[C@@H]3[C@H](O)C[C@@H]4C[C@H](O)CC[C@]4(C)[C@H]3CC[C@]12C)C(=O)NCC(=O)NCC(=O)O [CDCA-C-SV40] (Chenodeoxycholyl-CGYGPKKKRKVGG-OH)
[4]
  cytotoxic activity: 100%

## CC(=O)N[C@@H](CS)C(=O)O [NAC, N-acetylcysteine, reference compound]
EL4 lymphoma cells; CA-C-SV40 at EC50 dose
  rescue from CA-C-SV40-triggered cell death: completely blocked apoptosis

## CA-C-hnRNPA1: cholic acid conjugated to C-hnRNPA1 M9 NLS peptide (SEQ ID NO: 4) (Cholyl-CSNFGPMKGGNFGGRSSGPY)
[5]
  antigen presentation: reduced antigen presentation activity

## SV40 NLS: nuclear localization signal from SV40 large T-antigen (PKKKRKV; SEQ ID NO: 2), tested alone as negative control [reference compound]
EL4 lymphoma cells
  cytotoxic activity: did not exhibit any cytotoxic activity
